Values of other authors as cited in patent US10870689B2, “ApoM-Fc fusion proteins, complexes thereof with sphingosine 1-phosphate (S1P), and methods for treating vascular and non-vascular diseases” (Children's Medical Center Corporation, priority 2016, dated 2020).

Molecular target: T1, S1P1 (Homo sapiens, UniProt P21453)
T1 construct: expressed in transfected cells
Settings: Hofmann et al. 2009; Tsukada et al. 2007

T1 sequence (P21453 whole entry, species assumed): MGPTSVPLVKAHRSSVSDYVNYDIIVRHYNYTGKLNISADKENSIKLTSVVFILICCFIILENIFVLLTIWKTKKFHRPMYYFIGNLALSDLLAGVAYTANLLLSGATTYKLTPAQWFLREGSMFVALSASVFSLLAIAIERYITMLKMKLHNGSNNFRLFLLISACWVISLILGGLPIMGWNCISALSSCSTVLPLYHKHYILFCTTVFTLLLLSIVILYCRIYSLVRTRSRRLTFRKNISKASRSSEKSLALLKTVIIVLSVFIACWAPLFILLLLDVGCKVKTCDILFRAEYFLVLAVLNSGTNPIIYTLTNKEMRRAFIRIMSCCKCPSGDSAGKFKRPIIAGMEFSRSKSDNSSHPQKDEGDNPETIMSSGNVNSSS

effect on cardiac rhythm: induced abnormal cardiac rhythm
SMILES: FC(F)(F)c1cccc(-c2noc(-c3cc(-c4ccccc4)c(C(F)(F)F)s3)n2)c1 [SEW2871]
